In patent US10624917B2, “Compositions and methods useful for treating or preventing liver diseases or disorders, and promoting weight loss” (YALE UNIVERSITY, priority 2014, dated 2020):

Key:
[1] = test system: HRE promoter luciferase construct in THP-1 cells; assay: HRE-promoter luciferase reporter assay in THP-1 cells; assay type: cell-based, human; conditions: LPS/PMA primed 16 hours, treatment over 8 hours
From the text: FIGS. 4A-4H illustrate the finding that adenosine mediates increase in pro-IL-1β via a HIF-1α-dependent pathway. FIG. 4A: Consensus NFκB and HRE binding sites in the IL-1β promoter. FIG. 4B: LPS primed PECs obtained from A2AR-cKO and controls were stimulated with or without NECA or CGS21680. FIG. 4C: LPS primed PECs obtained from HIF-1α-cKO and controls were stimulated with or without NECA at time points as indicated. Cells were harvested and RNA isolated after each treatment and gene expression of Il1b and Hif1α quantified by real-time PCR. FIG. 4D: THP-1 cells were transfected with HRE-promoter luciferase construct and β-galactosidase plasmid in the presence or absence of CREB dominant negative plasmid (CREBΔ), and then primed with LPS/PMA followed by NECA. […] Luciferase activities were measured and normalized to β-galactosidase activity and normalized with controls. […] Luciferase activities were measured and normalized to Rluc activity and the normalized value with controls as indicated. […] IL-1β was measured in cell supernatant by ELISA. Data are expressed as the mean±SD from three independent experiments. […] HIF-1α, pro-caspase-1, Caspase-1 and pro-IL-1β was measured in cell supernatant by western blot Immunoblots shown are representative results from at least three independent experiments. […]

[2] = test system: wild type C57BL/6 mice treated with LPS; assay: LPS/D-galactosamine liver injury with adenosine agonist; assay type: in vivo, mouse
Experimental: FIGS. 14A-14F illustrate increase in serum ALT and changes in liver gene expression in mice treated with LPS in the presence or absence of adenosine agonist. Wild type C57BL/6 mice were injected intraperitoneally with LPS (1 μg/mouse). 16 hours later mice received NECA (2.5 mg kg^−1 body weight) and D-galactosamine (500 mg kg^−1) by IP for 2 hours following liver tissue and serum collection. Serum ALT was determined (FIG. 14A), and the gene expression of Il1β (FIG. 14B), Il6 (FIG. 14C), Hif1α (FIG. 14D), Nlrp3 (FIG. 14E), and tnfα (FIG. 14F) was quantified by real-time PCR using each specific gene primer set as listed. Data are expressed as the mean±SD from 6 mice in each treatment group. *p<0.05 determined by Student's t-test.
The results recited herein show a requirement for adenosine signaling via the A2A receptor for maximal production of IL-1β by macrophages in vitro. With tissue inflammation and injury extracellular adenosine levels are known to increase by a variety of means from the basal levels below 1 μM to levels up to […]. It was tested whether A2A receptor driven inflammasome activity was relevant in vivo; two models of liver injury was used: one acute LPS driven model where liver injury was assessed in 6 hours after LPS, and a second model of sterile injury by a toxic metabolic insult to the liver by thioacetamide (TAA) in which injury was examined at days 1, 2 and 7. A2AR-cKO mice that specifically delete Adora2a gene in macrophages were used. Liver immune populations were intact in these mice (FIG. 13). […] To test the effect of increasing adenosine signaling in vivo, wild-type mice were treated with LPS in the presence or absence of the adenosine agonist NECA.

[3] = test system: Il1b and other genes in PECs; assay: Quantitative real-time RT-PCR gene expression in PECs; assay type: cell-based, mouse; conditions: peritoneal macrophages, FIG. 2E

CCNC(=O)[C@H]1O[C@@H](n2cnc3c(N)ncnc32)[C@H](O)[C@@H]1O [NECA, 5′-(N-ethylcarboxamido) adenosine]
HRE reporter luciferase activity [1]: resulted in HRE reporter luciferase activity
serum ALT [2]: significant elevation
whole liver transcript of Hif1a [2]: significant elevation
whole liver transcript of Il1b [2]: significant elevation
whole liver transcript of Il6 [2]: significant elevation
whole liver transcript of Nlrp3 [2]: significant elevation
whole liver transcript of tnfa [2]: reduction

CCNC(=O)[C@H]1O[C@@H](n2cnc3c(N)nc(NCCc4ccc(CCC(=O)O)cc4)nc32)[C@H](O)[C@@H]1O [CGS21680]
induction of Il1b mRNA expression [3]: increases
